Experimental data taken from paper PMC6271395, “Synthesis and Biological Activities of Some New (N^α-Dinicotinoyl)-bis-L-Leucyl Linear and Macrocyclic Peptides” (Molecules, 2014).

What was measured:
MCF7 = assay type: cell-based, human; conditions: MTT, 3 days, 37 °C; at least three experiments; read-out: IC50 against breast cell line MCF7
Method: (§1) The cytotoxicity of the newly synthesized compounds against cancer cell lines in vitro was performed with the MTT assay according to the Mosmann’s method. The MTT assay is based on the reduction of the soluble 3-(4,5-[…]-2-thiazolyl)-2,5-diphenyl-2H-tetrazolium bromide (MTT) into a blue-purple formazan product, mainly by mitochondrial reductase activity inside living cells. The cells used in cytotoxicity assay were cultured in RPMI 1640 medium supplemented with 10% fetal calf serum. Cells suspended in the medium (2 × 10^4 mL^−^1) were plated in 96-well culture plates and incubated at 37 °C in a 5% CO2 incubator. […] The cultured cells were mixed with 20 μL of MTT solution and incubated for 4 h at 37 °C. The supernatant was carefully removed from each well and 100 μL of DMSO were added to each well to dissolve the formazan crystals which were formed by the cellular reduction of MTT. After mixing with a mechanical plate mixer, the absorbance of each well was measured by a microplate reader using a test wavelength of 570 nm. The results were expressed as the IC50, which inducing a 50% inhibition of cell growth of treated cells when compared to the growth of control cells. Each experiment was performed at least three times. There was a good reproducibility between replicate wells with standard errors below 10%.

Bacillus aureus = assay: Agar diffusion antimicrobial test, Bacillus aureus; assay type: cell-based; conditions: Gram+ve, modified Kirby–Bauer disk diffusion, 10 µg/mL
Method: (§2) The newly synthesized compounds 3–12 were tested for their preliminary antimicrobial activity against different microorganisms representing Gram-positive (Bacillus subtilis, Bacillus aureus and Staphylococcus aureus), Gram-negative bacteria (Escherichia coli), yeast (Candida albican) and fungi (Aspergillus niger).
(§3) The antimicrobial activities of the synthesized compounds were determined by the agar diffusion method as recommended by the national committee for clinical laboratory standards (NCCLS). The concentrations of the tested compounds (10 µg/mL) were used according to modified Kirby–Bauer’s disk diffusion method. The degree of inhibition is measured in comparison with that of chloramphinicol and fusidic acid taken as standards.

Staphylococcus aureus = assay: Agar diffusion antimicrobial test, Staphylococcus aureus; assay type: cell-based; conditions: Gram+ve, modified Kirby–Bauer disk diffusion, 10 µg/mL
Method: as §2, §3

[1] = system: carrageenan-induced edema; assay: Carrageenan-induced edema (rat paw test); assay type: in vivo; conditions: one hour before carrageenan, male albino rats, eight animals per group, paws excised four hours after drug administration
Method: (§4) For the determination of the antiphlogistic potency of the synthesized compounds, two standard tests were realized at a dose level 2.5 and 5 mg/kg body weight of the rats, namely the protection against carrageenan-induced edema according to Winter et al. and the inhibition of plasma PGE2. The latter is known as a good confirming indicator for carrageenan-induced rat paw edema. […] For these compounds, a similar activity profile was realized for the inhibition of plasma PGE2.
(§5) Groups of adult male albino rats (150–180 g), each of eight animals were orally dosed with tested compounds at a dose level of 2.5–5 mg/kg one hour before carrageenan challenge. Foot paw edema was induced by subplantar injection of 0.05 cm^3 of a 1% suspension of carrageenan in saline into the plantar tissue of one hind paw. An equal volume of saline was injected to the other hand paw and served as control. Four hours after drug administration the animals were decapitated, blood was collected, and the paws were rapidly excised. The average weight of edema was examined for the treated as well as the control group and the percentage inhibition of weight of edema was also evaluated. Diclofenac potassium (5 mg/kg) was employed as standard reference against which the tested compounds were compared (Table 2).

plasma PGE2 = assay: Inhibition of plasma PGE2 (EIA) in carrageenan-challenged rats; assay type: in vivo, rat; conditions: rats n = 8, blood four hours after drug administration, PGE2 EIA kit
Method: as §4, §5
Heparinized blood samples were collected from rats (n = 8), plasma was separated by centrifugation at 12,000 g for 2 min at […], immediately frozen, and stored at […] until use. The design correlate EIA prostaglandin E2 (PGE2) kit (Aldrich, Steinheim, Germany) is a competitive immuno assay for the quantitative determination of PGE2 in biological fluids. The kit uses a monoclonal antibody to PGE2 to bind, in a competitive manner, the PGE2 in the sample after a simultaneous incubation at room temperature. The excess reagents were washed away and the substrate was added, after a short incubation time the enzyme reaction was stopped, and the yellow color generated was read on a microplate reader DYNATech, MR 5000 at 405 nm (Dynatech Industries Inc., McLean, VA, USA). The intensity of the bound yellow color is inversely proportional to the concentration of PGE2 in either standard or samples.

Candida albicans = assay: Agar diffusion antimicrobial test, Candida albicans; assay type: cell-based; conditions: Yeast, modified Kirby–Bauer disk diffusion, 10 µg/mL
Method: as §2, §3

MDAMB231 = assay type: cell-based; conditions: MTT, 3 days, 37 °C; at least three experiments; read-out: IC50 against breast cell line MDAMB231
Method: as §1

MDAMB435 = assay type: cell-based; conditions: MTT, 3 days, 37 °C; at least three experiments; read-out: IC50 against breast cell line MDAMB435
Method: as §1

HS578T = assay type: cell-based; conditions: MTT, 3 days, 37 °C; at least three experiments; read-out: IC50 against breast cell line HS578T
Method: as §1

Bacillus subtilis = assay: Agar diffusion antimicrobial test, Bacillus subtilis; assay type: cell-based; conditions: Gram+ve, modified Kirby–Bauer disk diffusion, 10 µg/mL
Method: as §2, §3

Aspergillus niger = assay: Agar diffusion antimicrobial test, Aspergillus niger; assay type: cell-based; conditions: Fungi, modified Kirby–Bauer disk diffusion, 10 µg/mL
Method: as §2, §3

Escherichia coli = assay: Agar diffusion antimicrobial test, Escherichia coli; assay type: cell-based; conditions: Gram−ve, modified Kirby–Bauer disk diffusion, 10 µg/mL
Method: as §2, §3

| Compound | IC50 (MCF7) | Inhibition Zome, Bacillus aureus (Bacillus aureus) | Inhibition Zome, Staphylococcus aureus (Staphylococcus aureus) | % Protection against Edema ([1]; dose 2.5 mg/kg oral) | % Protection against Edema ([1]; dose 5.0 mg/kg oral) | % Inhibition of Plasma PGE2 (plasma PGE2; dose 2.5 mg/kg oral) | % Inhibition of Plasma PGE2 (plasma PGE2; dose 5.0 mg/kg oral) | Inhibition Zome, Candida albicans (Candida albicans) | IC50 (MDAMB231) | IC50 (MDAMB435) | IC50 (HS578T) | Inhibition Zome, Bacillus subtilis (Bacillus subtilis) | Inhibition Zome, Aspergillus niger (Aspergillus niger) | Inhibition Zome, Escherichia coli (Escherichia coli) |
| --- | --- | --- | --- | --- | --- | --- | --- | --- | --- | --- | --- | --- | --- | --- |
| CC(C)C[C@H](NC(=O)c1cncc(C(=O)N[C@@H](CC(C)C)C(=O)N/N=C/c2ccc([N+](=O)[O-])cc2)c1)C(=O)N/N=C/c1ccc([N+](=O)[O-])cc1 [Compound 10d] | 0.35 nM | 2.00 cm | 1.92 cm | 81.00 ± 0.072% | 95.82 ± 0.062% | 63.14 ± 0.023% | 79.88 ± 0.031% | 0.96 cm | 3.67 µM | 57.5 µM | 5.67 µM | 1.85 cm | 2.00 cm | 0.90 cm |
| CC(C)C[C@H](NC(=O)c1cncc(C(=O)N[C@@H](CC(C)C)C(=O)NN2C(=O)c3ccccc3C2=O)c1)C(=O)NN1C(=O)c2ccccc2C1=O [Compound 7a] | – | 1.84 cm | 1.58 cm | 97.45 ± 0.054% | 98.86 ± 0.046% | 81.30 ± 0.044% | 82.48 ± 0.052% | 1.02 cm | – | – | – | 1.55 cm | 1.64 cm | 0.75 cm |
| CC(C)C[C@H](NC(=O)c1cncc(C(=O)N[C@@H](CC(C)C)C(=O)NN)c1)C(=O)NN [Compound 4, N^2,N^2′-(Pyridine-3,5-dicarbonyl)-di-L-leucyl hydrazide] | – | 1.92 cm | 1.80 cm | 93.45 ± 0.074% | 98.56 ± 0.060% | 75.66 ± 0.040% | 80.01 ± 0.058% | 0.92 cm | – | – | – | 1.85 cm | 1.56 cm | 0.80 cm |
| 2,6-Bis[(N-[4-methyl-1-(1H-benzo[de]isoquinoline-1,3(2H)-dion)-pentan]-3-carboxamido]pyridine [Compound 8] | – | 1.94 cm | 1.95 cm | 78.88 ± 0.090% | 92.00 ± 0.060% | 57.57 ± 0.045% | 76.00 ± 0.035% | 0.98 cm | – | – | – | 1.90 cm | 2.00 cm | 0.90 cm |
